Laboratory results as given in patent publication US7268159B2, “Substituted indoles” (Wyeth, priority 2003, dated 2007).

Columns and labels:
[1] = target: T1, recombinant human plasminogen activator inhibitor-1 (PAI-1) (Homo sapiens, UniProt P05121); assay: Primary screen for the PAI-1 inhibition (residual tPA activity, Spectrozyme-tPA chromogenic substrate); assay type: biochemical; conditions: 140 nM PAI-1, 70 nM tPA, pH 6.6; for inhibition at 10 µM: 10 μM test compound; for inhibition at 25 µM: 25 μM test compound
T1 construct: purchased Molecular Innovations, Royal Oak, Mich
T1 sequence (P05121 24-402): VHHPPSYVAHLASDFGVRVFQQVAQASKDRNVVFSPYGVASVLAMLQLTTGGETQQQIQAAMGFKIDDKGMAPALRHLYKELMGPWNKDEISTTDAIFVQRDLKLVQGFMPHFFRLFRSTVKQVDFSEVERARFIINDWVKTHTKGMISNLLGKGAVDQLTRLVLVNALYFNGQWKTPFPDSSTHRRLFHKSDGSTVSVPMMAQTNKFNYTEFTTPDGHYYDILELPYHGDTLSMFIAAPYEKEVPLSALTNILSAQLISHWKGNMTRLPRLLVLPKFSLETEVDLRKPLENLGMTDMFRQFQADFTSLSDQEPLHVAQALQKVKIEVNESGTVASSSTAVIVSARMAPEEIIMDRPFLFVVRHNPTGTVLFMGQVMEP
Experimental: Test compounds are dissolved in DMSO at a final concentration of 10 mM, then diluted 100× in physiologic buffer. The inhibitory assay is initiated by the addition of the test compound (1-100 μM final concentration, maximun DMSO concentration of 0.2%) in a pH 6.6 buffer containing 140 nM recombinant human plasminogen activator inhibitor-1 (PAI-1; Molecular Innovations, Royal Oak, Mich.). Following a 1 hour incubation at room temperature, 70 nM of recombinant human tissue plasminogen activator (tPA) is added, and the combination of the test compound, PAI-1 and tPA is incubated for an additional 30 minutes. Following the second incubation, Spectrozyme-tPA (American Diagnostica, Greenwich, Conn.), a chromogenic substrate for tPA, is added and absorbance read at 405 nm at 0 and 60 minutes. Relative PAI-1 inhibition is equal to the residual tPA activity in the presence of the test compound and PAI-1. Control treatments include the complete inhibition of tPA by PAI-1 at the molar ratio employed (2:1), and the absence of any effect of the test compound on tPA alone.

human PAI-1 = human PAI-1 (Homo sapiens, UniProt P05121); assay: Assay for determining IC50 of inhibition of PAI-1 (active PAI-1 bound to tPA-coated plate, antibody detection); assay type: binding; conditions: human PAI-1 50 ng/ml, pH 7.5
Sequence of human PAI-1 (P05121 24-402): as above
Experimental: This assay is based upon the non-SDS dissociable interaction between tPA and active PAI-1. Assay plates are initially coated with human tPA (10 μg/ml). Test compounds of the present invention are dissolved in DMSO at 10 mM, then diluted with physiologic buffer (pH 7.5) to a final concentration of 1-50 μM. Test compounds are incubated with human PAI-1 (50 ng/ml) for 15 minutes at room temperature. The tPA-coated plate is washed with a solution of 0.05% Tween 20 and 0.1% BSA, then the plate is blocked with a solution of 3% BSA. An aliquot of the substituted indole/PAI-1 solution is then added to the tPA-coated plate, incubated at room temperature for 1 hour, and washed. Active PAI-1 bound to the plate is assessed by adding an aliquot of a 1:1000 dilution of the 33B8 monoclonal antibody against human PAI-1, and incubating the plate at room temperature for 1 hour (Molecular Innovations, Royal Oak, Mich.) The plate is again washed, and a solution of goat anti-mouse IgG-alkaline phosphatase conjugate is added at a 1:50,000 dilution in goat serum. […] The plate is incubated 45 minutes at room temperature, and color development is determined at OD405 nm. The quantitation of active PAI-1 bound to tPA at varying concentrations of the test compound is used to determine the IC50. Results are analyzed using a logarithmic best-fit equation. […]

| SMILES | inhibition at 10 µM [1] | inhibition at 25 µM [1] | IC50 (human PAI-1) |
| --- | --- | --- | --- |
| CS(=O)(=O)Nc1ccc(Cn2c(C(=O)O)c(-c3cccs3)c3ccccc32)cc1 [Compound 14, 1-{4-[(methylsulfonyl)amino]benzyl}-3-thien-2-yl-1H-indole-2-carboxylic acid] | 45% | 53% | – |
| O=C(O)c1c(-c2ccccc2)c2ccccc2n1Cc1ccc(NS(=O)(=O)c2ccccc2)cc1 [Compound 11, 3-phenyl-1-{4-[(phenylsulfonyl)amino]benzyl}-1H-indole-2-carboxylic acid] | 51% | 71% | – |
| CS(=O)(=O)Nc1ccc(Cn2c(C(=O)O)c(-c3ccccc3)c3ccccc32)cc1 [Compound 12, 1-{4-[(methylsulfonyl)amino]benzyl}-3-phenyl-1H-indole-2-carboxylic acid] | 42% | 49% | – |
| O=C(O)c1ccc2c(ccn2Cc2ccc(NS(=O)(=O)c3ccc(-c4ccccc4)cc3)cc2)c1 [Compound 5, 1-{4-[(1,1′-biphenyl-4-ylsulfonyl)amino]benzyl}-1H-indole-5-carboxylic acid] | – | 22% | – |
| O=C(O)c1c(-c2cccs2)c2ccccc2n1Cc1ccc(NS(=O)(=O)c2ccccc2)cc1 [Compound 13, 1-{4-[(phenylsulfonyl)amino]benzyl}-3-thien-2-yl-1H-indole-2-carboxylic acid] | 50% | 79% | – |
| O=C(O)c1c(-c2ccccc2)c2ccccc2n1Cc1ccc(Nc2ccccc2)cc1 [Compound 16, 1-(4-anilinobenzyl)-3-phenyl-1H-indole-2-carboxylic acid] | 26% | 32% | – |
| O=C(O)c1cc2ccccc2n1-c1ccc(-n2cccc2)cc1 [Compound 2, 1-[4-(1H-pyrrol-1-yl)phenyl]-1H-indole-2-carboxylic acid] | 15% | 35% | – |
| CC(C)(C)c1ccc(S(=O)(=O)Nc2ccc(Cn3ccc4cc(C(=O)O)ccc43)cc2)cc1 [Compound 4, 1-(4-{[(4-tert-butylphenyl)sulfonyl]amino}benzyl)-1H-indole-5-carboxylic acid] | – | 27% | – |
| CC(C)(C)c1ccc(S(=O)(=O)Nc2ccc(Cn3cc(C(=O)O)c4ccccc43)cc2)cc1 [Compound 6, 1-(4-{[(4-tert-butylphenyl)sulfonyl]amino}benzyl)-1H-indole-3-carboxylic acid] | 19% | 28% | – |
| O=C(O)c1ccc2ccn(Cc3ccc(NS(=O)(=O)c4ccc(-c5ccccc5)cc4)cc3)c2c1 [Compound 10, 1-{4-[(1,1′-biphenyl-4-ylsulfonyl)amino]benzyl}-1H-indole-6-carboxylic acid] | 26% | 30% | – |
| CC(C)(C)c1ccc(S(=O)(=O)Nc2ccc(Cn3ccc4c(C(=O)O)cccc43)cc2)cc1 [Compound 8, 1-(4-{[(4-tert-butylphenyl)sulfonyl]amino}benzyl)-1H-indole-4-carboxylic acid] | 27% | 47% | – |
| O=C(O)c1cc2ccccc2n1Cc1ccc(NS(=O)(=O)c2ccc(-c3ccccc3)cc2)cc1 [Compound 3, 1-{4-[(1,1′-biphenyl-4-ylsulfonyl)amino]benzyl}-1H-indole-2-carboxylic acid] | – | 66% | – |
| O=C(O)c1cc2ccccc2n1-c1ccc(NS(=O)(=O)c2ccc(OC(F)(F)F)cc2)cc1 [Compound 1, 1-[4-({[4-(trifluoromethoxy)phenyl]sulfonyl}amino)phenyl]-1H-indole-2-carboxylic acid] | 39% | 40% | – |
| O=C(O)c1cccc2c1ccn2Cc1ccc(NS(=O)(=O)c2ccc(-c3ccccc3)cc2)cc1 [Compound 9, 1-{4-[(1,1′-biphenyl-4-ylsulfonyl)amino]benzyl}-1H-indole-4-carboxylic acid] | 26% | 35% | – |
| O=C(O)c1cn(Cc2ccc(NS(=O)(=O)c3ccc(-c4ccccc4)cc3)cc2)c2ccccc12 [Compound 7, 1-{4-[(1,1′-biphenyl-4-ylsulfonyl)amino]benzyl}-1H-indole-3-carboxylic acid] | 25% | 27% | – |
| Cc1ccc(C)n1-c1ccc(Cn2c(C(=O)O)c(-c3ccccc3)c3ccccc32)cc1 [Compound 15, 1-[4-(2,5-dimethyl-1H-pyrrol-1-yl)benzyl]-3-phenyl-1H-indole-2-carboxylic acid] | 53% | 69% | 2510 nM |
| O=C(O)c1c(-c2cccs2)c2ccccc2n1Cc1ccc(Nc2ccccc2)cc1 [Compound 17, 1-(4-anilinobenzyl)-3-thien-2-yl-1H-indole-2-carboxylic acid] | 25% | 35% | – |
